# Earlier results in patent US20070122442A1, “Triple-Action Pest Control Formulation and Method” (priority 2004, published 2007).
# System: insects
# Conditions: variety of insects
compound,measurement,value
OB(O)O [boric acid],retention at which boric acid is known to be effective,below 0.5%
